Results from publication PMC8648123, “An atypical EhGEF regulates phagocytosis in Entamoeba histolytica through EhRho1” (PLoS Pathogens, 2021).

How the values were obtained:
EhGEF = biological target: T1, EhGEF (Entamoeba histolytica, UniProt C4LYE4); assay: tryptophan fluorescence quenching titration; assay type: binding
T1 construct: gene EHI_008090; recombinant protein lacking PH domain (EhGEFΔPH), putative GEF domain

[1] = biological target: GST-tagged EhRho1 (wild type) (Entamoeba histolytica)

Molecule	Kd (EhGEF)	MANT-GDP dissociation from recombinant EhRho1 in presence of HA-EhGEF, compared with HsRhoA and EhRab1a [1]
Nc1nc2c(ncn2[C@@H]2O[C@H](COP(=O)(O)OP(=O)(O)OP(=O)(O)O)[C@@H](O)[C@H]2O)c(=O)[nH]1 [GTP]	298 µM	
HA-tagged EhGEF (full length wild type) (natural protein) MSEELKISVESLRPALFEGWGKKQGGSVKTWKKRWFVLKDNRLWYFASKTAEEAKGFIELPPGTETKDVSQNKKFMFSINSRNTKGSRVFYIVTENSVDHATFFDAVRKVLNKSSPSSVPAAQSTTPVNVPKAENQFTLQGNNSSTGLSTSTQPVTSTIPPMADAVNIPNSLQPKCDGRKNINKIKAKISWLQVEGENVVEFWKYWMDSTPQSDALEVGQSIQFMLVVSGNTEKLSWRVFGPQGALIQNMVDFFWNVGAPDEEIDHLNNLGCQINPSEIGSWIDMSVMNGMDGGWFFKGDLVCDVIRDTADKCEYAERLITWAKEHGLNYLCQMGRDMGATPPRQSEFRFKLDGVISSRMEKVHSAFTTFGFPPIPVNIVEILTNLPPVYTYFYLCVIVSSEGFVKISILVPAPKQDVVDAFLFAMSDVKDTHIALHKDITNTLGNTPLFVEYCYLNPGYGYEVYKEGADVLVHYNLGSESR		2 fold
